# According to US20060110790A1, “Expression system for large functional proteins” (priority 2002, published 2006):
# Target: T1, co-expressed N and C halves of ABCR (Homo sapiens, UniProt P78363)
# T1 construct: The cDNAs coding for the N-half (amino acids 1-1325) and C-half (amino acids 1326-2273) of ABCR; made in house; host or cells: COS-1 cells, co-transfected
# T1 sequence (P78363 1-1325): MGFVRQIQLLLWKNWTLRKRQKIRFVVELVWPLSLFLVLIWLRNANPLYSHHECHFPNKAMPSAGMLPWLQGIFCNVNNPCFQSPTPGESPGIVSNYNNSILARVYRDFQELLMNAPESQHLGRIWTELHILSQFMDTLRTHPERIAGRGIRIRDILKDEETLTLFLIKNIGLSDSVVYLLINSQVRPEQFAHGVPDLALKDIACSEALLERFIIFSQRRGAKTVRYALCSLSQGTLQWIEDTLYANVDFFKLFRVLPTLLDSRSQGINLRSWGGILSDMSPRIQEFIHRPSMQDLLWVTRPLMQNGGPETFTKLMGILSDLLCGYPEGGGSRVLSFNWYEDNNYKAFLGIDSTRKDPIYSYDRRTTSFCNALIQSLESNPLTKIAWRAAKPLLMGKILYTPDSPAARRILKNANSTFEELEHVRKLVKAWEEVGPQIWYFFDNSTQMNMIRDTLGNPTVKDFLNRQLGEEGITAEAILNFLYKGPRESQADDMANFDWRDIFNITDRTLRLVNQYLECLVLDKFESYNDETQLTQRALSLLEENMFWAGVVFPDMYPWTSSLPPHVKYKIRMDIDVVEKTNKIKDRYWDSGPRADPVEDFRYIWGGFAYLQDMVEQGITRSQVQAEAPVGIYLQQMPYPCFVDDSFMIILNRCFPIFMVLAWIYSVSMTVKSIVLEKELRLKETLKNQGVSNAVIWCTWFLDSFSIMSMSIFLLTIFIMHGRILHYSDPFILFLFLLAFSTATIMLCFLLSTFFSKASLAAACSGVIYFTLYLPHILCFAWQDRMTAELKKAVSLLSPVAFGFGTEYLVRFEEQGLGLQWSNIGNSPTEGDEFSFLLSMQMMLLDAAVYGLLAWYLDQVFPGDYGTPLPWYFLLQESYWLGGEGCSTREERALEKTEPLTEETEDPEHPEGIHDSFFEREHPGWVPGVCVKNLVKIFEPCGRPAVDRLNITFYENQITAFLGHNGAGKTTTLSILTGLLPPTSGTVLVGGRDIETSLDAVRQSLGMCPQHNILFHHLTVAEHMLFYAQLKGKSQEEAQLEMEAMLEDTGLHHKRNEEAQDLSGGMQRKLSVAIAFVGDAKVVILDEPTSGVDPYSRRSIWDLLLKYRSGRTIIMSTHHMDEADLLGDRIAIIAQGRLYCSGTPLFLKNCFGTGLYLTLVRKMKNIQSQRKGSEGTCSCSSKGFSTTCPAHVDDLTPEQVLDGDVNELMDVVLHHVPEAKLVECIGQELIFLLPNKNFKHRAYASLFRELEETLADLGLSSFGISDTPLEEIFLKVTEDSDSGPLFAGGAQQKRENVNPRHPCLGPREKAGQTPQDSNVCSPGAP
# T1 sequence (P78363 1326-2273): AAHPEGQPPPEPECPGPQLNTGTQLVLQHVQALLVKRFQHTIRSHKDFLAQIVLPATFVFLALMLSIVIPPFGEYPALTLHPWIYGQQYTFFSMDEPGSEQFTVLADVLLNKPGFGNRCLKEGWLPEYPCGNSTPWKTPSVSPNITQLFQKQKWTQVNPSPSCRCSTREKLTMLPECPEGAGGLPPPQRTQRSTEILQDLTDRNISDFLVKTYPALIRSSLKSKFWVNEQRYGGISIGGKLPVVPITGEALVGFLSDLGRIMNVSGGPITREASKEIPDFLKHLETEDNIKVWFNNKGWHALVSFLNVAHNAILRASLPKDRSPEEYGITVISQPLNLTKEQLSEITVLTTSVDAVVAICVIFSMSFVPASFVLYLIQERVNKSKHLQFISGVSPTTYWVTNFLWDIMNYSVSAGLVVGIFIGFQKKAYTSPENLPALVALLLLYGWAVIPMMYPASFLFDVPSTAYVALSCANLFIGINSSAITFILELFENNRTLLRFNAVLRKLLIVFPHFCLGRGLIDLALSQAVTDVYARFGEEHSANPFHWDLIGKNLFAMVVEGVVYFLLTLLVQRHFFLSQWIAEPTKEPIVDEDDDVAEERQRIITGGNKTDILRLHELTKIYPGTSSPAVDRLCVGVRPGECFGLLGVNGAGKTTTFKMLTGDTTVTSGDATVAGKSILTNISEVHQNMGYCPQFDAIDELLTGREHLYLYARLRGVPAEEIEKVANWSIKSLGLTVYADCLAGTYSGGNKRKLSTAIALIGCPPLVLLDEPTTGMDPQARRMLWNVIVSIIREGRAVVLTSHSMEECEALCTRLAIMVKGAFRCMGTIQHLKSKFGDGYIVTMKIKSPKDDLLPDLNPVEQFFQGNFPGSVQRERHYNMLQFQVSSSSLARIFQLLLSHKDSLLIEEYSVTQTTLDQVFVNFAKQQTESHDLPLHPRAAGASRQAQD
# Assay: Retinal-stimulated ATPase activity of purified protein reconstituted in lipid vesicles
# Format: biochemical
# Settings: expressed in COS-1 cells, purified on Rim 3F4 column, 50 μM [α32P]ATP
# Experimental: Membranes (from two 10 cm dishes) were solubilized in 0.5 ml of 1% Triton-X100 in Buffer A (140 mM NaCl, 20 mM Tris-HCl, pH 7.4) for 20 min on ice. For ATPase assays, the membrane preparation step was omitted and the cell suspension was solubilized directly in Buffer B (10 mg/ml soybean phospholipids, 10% glycerol, 1 mM dithiothreitol, 100 mM NaCl, 3 mM MgCl2, 50 mM NaHEPES, pH 7.4) containing 18 mM CHAPS. The supernatant after a 10 min centrifugation at 40,000 rpm (TLA100.4 rotor) was mixed with 50 μl Rim3F4 Sepharose 2B for 1 h at 4° C. The beads were washed 6 times in Buffer A containing 0.2% Triton X-100 or Buffer B containing 10 mM CHAPS and eluted with 4% SDS (for electrophoresis) or 0.2 mg/ml Rim3F4 peptide (for reconstitution and determination of ATPase activity). Purified protein (24 μl) was incubated with 6 μl of 50 mg/ml lipid (1:1 mixture of dioleoylphosphatidylethanolamine and brain polar lipid, by weight) and 3 μl n-octylglucoside for 30 min on ice. The mixture was diluted rapidly with 200 μl of Buffer C (1 mM dithiothreitol, 140 mM NaCl, 25 mM NaHEPES, pH 7.4) and passed through a 200 μl Extracti-gel column (Pierce). The flow-through containing the reconstituted protein was used for determination of ATPase activity.
# ATPase activity was measured as described previously (Ahn, J., Wong, J. T., and Molday, R. S. (2000) J Biol Chem 275(27), 20399-405) using 50 μM [α^32P]ATP and thin layer chromatography. The all-trans retinal concentration was determined spectrophotometrically (λ383 nm=42.88 mM^−1 cm^−1). Protein concentration was estimated from the eluate before reconstitution by laser densitometry of Coomassie blue stained gels using bovine serum albumin as a standard. […] Direct protein measurements after reconstitution by densitometry of Western blots was about half of that in the eluate. […]
# ATPase Activity of Expressed N and C Halves—The basal and retinal activated ATPase activity of full-length ABCR and the N and C halves individually or co-expressed in COS-1 cells was determined after immunoaffinity purification and reconstitution into lipid vesicles. […]
smiles,measurement,value
CC1=C(/C=C/C(C)=C/C=C/C(C)=C/C=O)C(C)(C)CCC1 [all-trans retinal],stimulation of ATPase activity,1-2 fold
